Data from article PMC2993773 (Journal of natural products, 2010).

Tests used:
[1] = tested on: KB-VIN multidrug-resistant human cancer cell line; assay: In vitro cytotoxicity; assay type: cell-based
[2] = tested on: P-388 murine leukemia cells; conditions: in vitro; cited from earlier work
[3] = tested on: KB nasopharyngeal human cancer cell line; assay: In vitro cytotoxicity; assay type: cell-based; conditions: KB cells (value in parentheses)

COc1cc([C@@H]2c3cc4c(cc3[C@@H](O[C@@H]3O[C@@H]5CO[C@@H](C)O[C@H]5[C@H](O)[C@H]3O)[C@H]3COC(=O)[C@H]23)OCO4)cc(OC)c1O [etoposide, reference compound]
activity in KB-VIN relative to KB (cross-resistance) ([1]; KB-VIN versus KB): at least eight-fold less active

C=C(CC[C@@H](C)[C@H]1CC[C@@]2(O)C3=C(C(=O)C[C@]12C)[C@@]1(C)CCC(=O)[C@@H](C)C1C[C@@H]3O)C(C)C(=O)O (stereo partly drawn) [Compound 4, 7β,14α-dihydroxy-3,11-dioxo-4α-methylergosta-8,24(28)-dien-26-oic acid]
substrate of P-glycoprotein (P-gp) ([1]; not told): not substrates of P-glycoprotein

C=C(CC[C@@H](C)[C@H]1CC[C@H]2C3=C(C(=O)C[C@]12C)[C@@]1(C)CCC(=O)[C@@H](C)[C@@H]1C[C@@H]3O)C(C)C(=O)OC (stereo partly drawn) [Compound 6, methyl 7β-hydroxy-3,11-dioxo-4α-methylergosta-8,24(28)-dien-26-oate]
substrate of P-glycoprotein (P-gp) ([1]; inferred from lack of cross-resistance shown by KB-VIN): not substrates of P-glycoprotein

C=C(CC[C@@H](C)[C@H]1CC[C@H]2C3=C(C(=O)C[C@]12C)[C@@]1(C)CCC(=O)[C@@H](C)[C@@H]1CC3=O)C(C)C(=O)O (stereo partly shown) [Compound 11, zhankuic acid A]
cytotoxicity against P-388 murine leukemia cells [2]: significant cytotoxicity

C=C(CC[C@@H](C)[C@H]1CC[C@H]2C3=C(C(=O)[C@H](O)[C@]12C)[C@@]1(C)CC[C@@H](O)[C@@H](C)[C@@H]1CC3=O)C(C)C(=O)O (stereo partly shown) [Compound 13, zhankuic acid C]
cytotoxicity against P-388 murine leukemia cells [2]: significant cytotoxicity

eburicol [Compound 19]
% inhibition at 20 μM, KB [3]: 34% | % inhibition at 20 μM, KB-VIN ([1]; 20 μM, KB-VIN cells (value in parentheses)): 18%
